Assay results published in patent publication US9464064B2, “HCV helicase inhibitors and methods of use thereof” (University of Kansas, priority 2011, dated 2016).

Key:
[1] = Parallel Artificial Membrane Permeability Assay (PAMPA); type: in vitro ADME; settings: acceptor pH 7.4
Description: Permeability was assessed using the Parallel Artificial Membrane Permeability Assay (PAMPA) in a 96-well format. All liquid dispensed and transfer steps were performed with the FREEDOM EVO automated liquid handler (Tecan US). Measurements were performed in an aqueous buffer solution (PRISMA HT, pION Inc.) at pH 5.0, 6.2, and 7.4, in duplicate. A “sandwich” plate (pION Inc.) composed of a donor bottom plate and an acceptor filter plate was used. The donor wells contained the compounds in 180 μl system solution, and magnetic stir bars. The filter on the bottom of each acceptor well was coated with GIT-0 lipid (pION Inc.) and filled with 200 μl of Acceptor Sink Buffer, pH 7.4 (pION Inc.) containing a surfactant to mimic the function of serum proteins. The permeation time was 30 minutes and moderate stirring (equivalent to 40 μm Aqueous Boundary Layer thickness) was applied using the GUT-BOX (pION, Inc.). After the permeation time, the sandwich was disassembled and the amount of compound present in both the donor and acceptor wells was measured by UV absorbance (250-498 nm) using the Infinite M200 (Tecan US) and compared to spectra obtained from reference standards. Mass balance was used to determine the amount of material embedded in the membrane filter. The effective permeability, Pe, was calculated using the software PAMPA Evolution Plus, version 3.2 (pION Inc). Verapamil HCl (considered highly permeable), Metoprolol (considered moderately permeable), and Ranitidine (considered poorly permeable) were used as reference standards. Permeation time was 30 minutes. Final DMSO concentration was 0.5% and standards and test compounds were assayed at 100 μM.

[2] = Hepatic microsome stability, mouse; type: in vitro ADME; settings: percent remaining at 1 hour
Description: Metabolic stability was assessed in the presence of human liver microsomes (XenoTech) and mouse liver mirosomes (XenoTech). All liquid was dispensed and transfer steps were performed with the FREEDOM EVO automated liquid handler (Tecan US). NADPH, a required cofactor for CYP450 metabolism, was provided by the NADPH Regenerating System, Solutions A (BD Biosciences) and B (BD Biosciences). Compound stock solutions were initially prepared in 100% DMSO and subsequently diluted in acetonitrile for the assay. The pH of the reactions was kept at ˜7.4 with potassium phosphate buffer (BD Biosciences). The reactions were started after adding NADPH to the reaction plate containing microsomes and compounds and time 0 minutes aliquots were promptly collected and mixed with ice cold acetonitrile (spiked with internal standards) to quench the reactions. The remainder of the reaction volume was incubated at 37° C. with shaking. […] The amount of compound in the supernatant was determined by LC/MS/MS (Applied Biosystems, Sciex API4000 Q-TRAP) and the percent of parent compound remaining after 60 minutes was calculated by the following formula: % parent compound remaining=[(concentration at 60 minutes/concentration at 0 minutes)×100]. […] Results reported are the mean of each reaction triplicate, normalized to the internal standard, and expressed as a percent compound remaining after the incubation time. […]

[3] = system: NS3 protease in Huh7.5/HCV Con1sg Rluc cells; experiment: IPS-1 (MAVS)-based reporter cell-based protease assay; parameters: species or system hepatitis C virus; settings: 10 μM, 72 hours
Description: An IPS-1 (also known as MAVS)-based reporter assay was used for cell-based protease assay. […] RFP-NLS-IPS pseudoparticles were transduced into Huh7.5/HCV Con1sg Rluc cells in a 24-well plate containing cover slips and compounds were added to the cells after 6 hours at a 10 μM concentration and after 72 hours from the first addition, cells were fixed in 1% PFA, washed twice with PBS, mounted on glass slides and microscopic analyses were done.
Microscopy was performed with a Nikon Ti-E inverted fluorescence microscope using a 20× and 40×/NA 1.4 objective. Compounds were imaged using DAPI filter 340/40 band-pass excitation and a 435/50 band pass emission filter. For ALEXA 546 and RFP-NLS-IPS, a 528/25 nm band pass excitation filter and 590/60 nm band-pass emission filter were used. Image acquisition was performed with a Q imaging ROLERA camera and the NIS elements basic research imaging software (Nikon). […]
The assay selected (Jones, et al. (2010) supra) uses a fusion protein made from a NS3 protease cellular target called IPS-1 (also known as MAVS) fused to a red fluorescent protein (RFP) and a nuclear localization signal (NLS). Lentivirus expressing the RFP-NLS-IPS-1 was used to transduce the above Rluc subgenomic HCV replicon cell line, and the effect of compounds on the location of RFP-NLS was examined using fluorescence microscopy.

Cc1ccc2nc(-c3ccc4nc(-c5ccc(NC(=O)c6cccc(Cl)c6)cc5)sc4c3)sc2c1S(=O)(=O)O [Compound 17, 2′-(4-(3-chlorobenzamido)phenyl)-6-methyl-[2,6′-bibenzo[d]thiazole]-7-sulfonic acid]
Papp at 30 min, 100 μM ([1]; PAMPA, donor pH 6.2, read-out: PAMPA Pe): 0.22 ×10⁻⁶ cm/s
PAMPA Pe ([1]; donor pH 5.0): 0 (5.0) ×10^−6 cm/s
PAMPA Pe ([1]; donor pH 7.4): 0 (7.4) ×10^−6 cm/s
Hepatic Microsome Stability Mouse [2]: 83.11%

Cc1ccc2nc(-c3ccc4nc(-c5ccc(NC(=O)c6cc(C(F)(F)F)cc(C(F)(F)F)c6)cc5)sc4c3)sc2c1S(=O)(=O)O [Compound 24, 2′-(4-(3,5-bis(trifluoromethyl)benzamido)phenyl)-6-methyl-[2,6′-bibenzo[d]thiazole]-7-sulfonic acid]
nuclear translocation of RFP-NLS (cellular NS3 protease activity) [3]: did not inhibit nuclear translocation
